Test results from a compilation of properties of binary mixtures (doi:10.1098/rsos.241459/v2/response1).

Assay: xn = mol fraction of the nth substance listed
Details: 298.15 K, 100 kPa

electrical conductivity (x2 = 0) [S/m]	viscosity (x2 = 0) [mPa·s]	viscosity (x1 = 0.0895) [mPa·s]	electrical conductivity (x1 = 0.1758) [S/m]	viscosity (x1 = 0.1758) [mPa·s]	electrical conductivity (x1 = 0.3578) [S/m]	viscosity (x1 = 0.3578) [mPa·s]	electrical conductivity (x1 = 0.4397) [S/m]	viscosity (x1 = 0.4397) [mPa·s]	electrical conductivity (x1 = 0.6482) [S/m]	viscosity (x1 = 0.6482) [mPa·s]	viscosity (x1 = 0.8121) [mPa·s]	Compound
0.001	17.41	–	–	–	–	–	–	–	–	–	–	OCCO + CCCC[n+]1ccn(C)c1.F[B-](F)(F)F
–	–	15.5	0.63	15.52	0.727	18.87	0.766	21.3	0.577	31.97	51.8	CCCC[n+]1ccn(C)c1.F[B-](F)(F)F + OCCO
